Test results: paper PMC9174199, “Structural basis for MTA1c-mediated DNA N6-adenine methylation” (Nature Communications, 2022)
Blank lines part the entries; values can stand above or below the molecule they belong to.

How the values were obtained:
[1] = target: Tetrahymena thermophila MTA1 (TthMTA1), untagged (Tetrahymena thermophila); experiment: SEC; Superdex 200 Increase 10/300; purified proteins mixed at equimolar ratio (1:1, 1:1:1 or 1:1:1:1), 60 min on ice; 20 mM Tris pH 7.5, 300 mM NaCl, 2 mM DTT; peak fractions on SDS-PAGE
[2] = target: T1, TthMTA1 (residues 126-372)-Tthp2 crystal complex (Tetrahymena thermophila, UniProt Q22GC0); experiment: X-ray crystal structure, soaking; type: binding; details: site in MTA1 MTase domain
T1 construct: gene TTHERM_00704040; N-terminally truncated MTA1 with p2
T1 sequence (Q22GC0 182-428): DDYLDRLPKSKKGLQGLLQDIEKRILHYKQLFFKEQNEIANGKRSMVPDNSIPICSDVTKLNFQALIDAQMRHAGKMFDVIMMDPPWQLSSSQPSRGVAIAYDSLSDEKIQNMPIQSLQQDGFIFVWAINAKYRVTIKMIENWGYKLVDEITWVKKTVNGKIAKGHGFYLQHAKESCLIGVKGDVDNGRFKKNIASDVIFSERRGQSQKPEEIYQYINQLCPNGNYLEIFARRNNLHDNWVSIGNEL

[3] = target: T2, TthMTA1 (residues 126–372)-Tthp1-Tthp2 crystal complex (Tetrahymena thermophila, UniProt Q22GC0); experiment: X-ray crystal structure, soaking; type: binding; details: site in MTA1 MTase domain
T2 construct: gene TTHERM_00704040; N-terminally truncated MTA1 with p1 and p2; p1 degraded in the crystal, only its HTH domain seen
T2 sequence (Q22GC0 182-428): T1 sequence (Q22GC0 182-428)

[4] = target: T3, TthMTA1-Tthp1-Tthp2 ternary complex (ITC) (Tetrahymena thermophila, UniProt Q22GC0); experiment: isothermal titration calorimetry; details: 25 °C, pH 7.5, 300 mM NaCl, no DNA
T3 construct: gene TTHERM_00704040

[5] = target: T4, TthMTA1c (MTA1-MTA9-p1-p2 quaternary complex) (Tetrahymena thermophila, UniProt Q22GC0); experiment: isothermal titration calorimetry; details: 25 °C, pH 7.5, 300 mM NaCl, no DNA
T4 construct: gene TTHERM_00704040

[6] = target: T5, TthMTA1-Tthp2 binary complex (ITC) (Tetrahymena thermophila, UniProt Q22GC0); experiment: isothermal titration calorimetry; details: 25 °C, pH 7.5, 300 mM NaCl, no DNA
T5 construct: gene TTHERM_00704040

[7] = target: T6, TthMTA1-TthMTA9-Tthp2 ternary complex (ITC) (Tetrahymena thermophila, UniProt Q22GC0); experiment: isothermal titration calorimetry; details: 25 °C, pH 7.5, 300 mM NaCl, no DNA
T6 construct: gene TTHERM_00704040

TthMTA1-Ptep2 (ITC) = target: T7, TthMTA1-Ptep2 (ITC) (Tetrahymena thermophila, UniProt Q22GC0); experiment: isothermal titration calorimetry; details: 25 °C, pH 7.5, 300 mM NaCl, no DNA
T7 construct: gene TTHERM_00704040

His6GST-Tthp2 = target: T8, His6GST-Tthp2; experiment: GST pull-down; details: chain shown with the change;; parent: 100
T8 chain: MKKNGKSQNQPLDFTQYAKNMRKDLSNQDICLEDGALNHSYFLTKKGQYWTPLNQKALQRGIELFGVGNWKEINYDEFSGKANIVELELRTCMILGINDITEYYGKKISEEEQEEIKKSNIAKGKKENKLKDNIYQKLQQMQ

[8] = target: T9, GST-MTA1 (residues 171-372); experiment: GST pull-down; details: chain shown with the change;; parent: 100
T9 chain: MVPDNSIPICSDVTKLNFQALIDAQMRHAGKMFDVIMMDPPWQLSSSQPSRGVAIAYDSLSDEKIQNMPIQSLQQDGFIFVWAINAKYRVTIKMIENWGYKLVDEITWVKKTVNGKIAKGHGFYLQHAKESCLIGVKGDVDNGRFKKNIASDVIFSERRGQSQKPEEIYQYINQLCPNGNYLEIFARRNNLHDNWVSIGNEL

T6 sequence (Q22GC0 entry or part of it, one chain of several): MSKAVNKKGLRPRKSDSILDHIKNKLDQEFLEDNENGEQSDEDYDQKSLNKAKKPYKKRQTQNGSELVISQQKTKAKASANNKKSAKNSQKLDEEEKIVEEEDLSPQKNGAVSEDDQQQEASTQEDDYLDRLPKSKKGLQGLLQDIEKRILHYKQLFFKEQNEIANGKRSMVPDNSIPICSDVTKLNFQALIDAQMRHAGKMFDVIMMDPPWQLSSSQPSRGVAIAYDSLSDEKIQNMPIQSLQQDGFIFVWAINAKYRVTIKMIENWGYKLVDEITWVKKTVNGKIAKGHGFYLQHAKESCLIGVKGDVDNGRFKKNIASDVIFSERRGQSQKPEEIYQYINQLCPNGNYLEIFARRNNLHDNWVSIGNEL
T3 sequence (Q22GC0 entry or part of it, one chain of several): as above
T5 sequence (Q22GC0 entry or part of it, one chain of several): as above
T4 sequence (Q22GC0 entry or part of it, one chain of several): as above
T7 sequence (Q22GC0 57-428): as the sequence (Q22GC0 entry or part of it, one chain of several) above

Molecule: Nc1ncnc2c1ncn2[C@@H]1O[C@H](CSCC[C@H](N)C(=O)O)[C@@H](O)[C@H]1O [SAH]
X-ray crystal structure, soaking ([2]; 1 mM SAH soak): further confirmed by our SAM- and SAH-bound MTA1-p2 structures | X-ray crystal structure, soaking ([3]; 3.0 Å, 1 mM SAH soak): the SAH product-bound MTA1-p1-p2 complex by soaking approach

Molecule: C[S+](CC[C@H](N)C(=O)O)C[C@H]1O[C@@H](n2cnc3c(N)ncnc32)[C@H](O)[C@@H]1O (stereo partly drawn) [SAM]
Kd [4]: 14.8 ± 2.71 µM | Kd [5]: 2.4 ± 0.26 µM | X-ray crystal structure, soaking ([2]; 1 mM SAM soak): further confirmed by our SAM- and SAH-bound MTA1-p2 structures | Kd [6]: 44.6 ± 3.4 µM | Kd [7]: 3.64 ± 0.56 µM | X-ray crystal structure, soaking ([3]; 3.4 Å, 1 mM SAM soak): SAM donor-bound MTA1-p1-p2 complex | Kd (TthMTA1-Ptep2 (ITC)): 67.8 ± 5.45 µM

B2: Paramecium tetraurelia MTA9 (PteMTA9), untagged K218A (protein)
chain: MGKNQRESLRMRLRYNEPGSENKRINYFKLNQGYDITEDDSEYMDEQDSYKAFKKIRKYKTKSKEDKVTCDNLEVLLQWKGSINCQSYETDQKKIVVLKKILGTDLSQYAKGVQGIFIDNLFKKDLKNLDISKKLISNGILFIWSDKSLINEILETMENKGFTYIENLVVVQLSLEQALEELNKHMKIEQTEDAVLDNLDFLQQKVQVKDLILHRPSAVLNQSKQVLIMFRKFDEQKSQLELRHQRTPDVLFDIVNNGKSCLKTKEYIYQTIETLLPKSQLMEIFAQKDQPRKGWISVCENK
percent of parent [8]: 99%

The remaining lines, values ahead:

stoichiometry N [1]: 1
Molecule: Tetrahymena thermophila MTA9 (TthMTA9), untagged (natural protein)

percent of parent (His6GST-Tthp2): 4%
B1: Tetrahymena thermophila MTA1 (TthMTA1), untagged R358A (protein)
chain: MSKAVNKKGLRPRKSDSILDHIKNKLDQEFLEDNENGEQSDEDYDQKSLNKAKKPYKKRQTQNGSELVISQQKTKAKASANNKKSAKNSQKLDEEEKIVEEEDLSPQKNGAVSEDDQQQEASTQEDDYLDRLPKSKKGLQGLLQDIEKRILHYKQLFFKEQNEIANGKRSMVPDNSIPICSDVTKLNFQALIDAQMRHAGKMFDVIMMDPPWQLSSSQPSRGVAIAYDSLSDEKIQNMPIQSLQQDGFIFVWAINAKYRVTIKMIENWGYKLVDEITWVKKTVNGKIAKGHGFYLQHAKESCLIGVKGDVDNGRFKKNIASDVIFSERRGQSQKPEEIYQYINQLCPNGNYLEIFARANNLHDNWVSIGNEL
